For 36 molecules, EC50, Emax and Ki results are on record in ChEMBL document CHEMBL5247646, “Discovery of 2-Aminopyrimidines as Potent Agonists for the Bitter Taste Receptor TAS2R14” (J Med Chem, 2023).

Each structure is given as a SMILES string.

T5 sequence (P14416 whole entry): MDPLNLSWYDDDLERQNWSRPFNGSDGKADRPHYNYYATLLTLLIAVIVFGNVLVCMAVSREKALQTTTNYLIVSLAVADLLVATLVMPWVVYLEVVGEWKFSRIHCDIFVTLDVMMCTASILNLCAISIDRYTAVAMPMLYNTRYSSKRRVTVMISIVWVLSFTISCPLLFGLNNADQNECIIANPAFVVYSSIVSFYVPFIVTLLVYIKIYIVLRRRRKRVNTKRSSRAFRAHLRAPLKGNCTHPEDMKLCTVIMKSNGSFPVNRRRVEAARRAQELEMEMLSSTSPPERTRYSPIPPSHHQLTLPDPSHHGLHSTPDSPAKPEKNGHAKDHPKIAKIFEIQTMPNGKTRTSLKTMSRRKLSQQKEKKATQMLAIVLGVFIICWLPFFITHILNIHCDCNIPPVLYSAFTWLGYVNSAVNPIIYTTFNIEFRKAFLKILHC

One experiment has as its target T1, Taste receptor type 2 member 14 (Homo sapiens, UniProt Q9NYV8).
T1 sequence (Q9NYV8 whole entry): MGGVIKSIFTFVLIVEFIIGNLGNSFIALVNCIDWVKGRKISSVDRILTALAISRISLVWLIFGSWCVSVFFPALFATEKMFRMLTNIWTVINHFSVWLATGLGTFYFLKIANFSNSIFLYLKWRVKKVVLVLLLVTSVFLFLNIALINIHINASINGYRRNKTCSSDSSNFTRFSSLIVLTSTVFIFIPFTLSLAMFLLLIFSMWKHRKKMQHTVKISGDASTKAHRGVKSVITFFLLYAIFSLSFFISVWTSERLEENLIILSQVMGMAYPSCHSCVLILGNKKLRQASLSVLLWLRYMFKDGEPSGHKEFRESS
Description: Agonist activity at human TAS2R14 transfected in HEK293T cells assessed as IP1 accumulation measured after 150 mins by IP1 accumulation assay. Format: cell-based.
Settings: not given
Turning to `Cc1ccc(Nc2ccccc2C(=O)O)cc1C(F)(F)F`, the 50% effective concentration (EC50) amounted to 0.33 µM.

In the case of `FC(F)(F)c1cc(I)nc(Nc2ccccc2-c2nnn[nH]2)n1`, the concentration giving a half-maximal response (EC50) turned out to be 0.75 µM.

In the case of `O=C(O)c1ccccc1Nc1cccc(S(F)(F)(F)(F)F)c1`, the concentration for a half-maximal effect (EC50) came to 0.19 µM.

As for `O=C(O)c1ccccc1Nc1cc(C(F)(F)F)ccc1Br`, the 50% effective concentration (EC50) was found to be 0.64 µM.

With `N#Cc1ccc(C(F)(F)F)cc1Nc1ccccc1C(=O)O`, the concentration for a half-maximal effect (EC50) turned out to be 0.42 µM.

On to `O=C(O)c1ccccc1Nc1cncc(C(F)(F)F)c1`, for which the half-maximal effective concentration (EC50) amounted to 1.2 µM.

For `FC(F)(F)c1ccnc(Nc2ccccc2-c2nnn[nH]2)n1`, the concentration for a half-maximal effect (EC50) is 0.16 µM.

Consider `N#Cc1cc(C(F)(F)F)nc(Nc2ccccc2-c2nnn[nH]2)n1`, for which the EC50 amounted to 0.3 µM.

`Oc1cc(C(F)(F)F)nc(Nc2ccccc2-c2nnn[nH]2)n1`: the concentration giving a half-maximal response (EC50) came out at 6.8 µM.

For `C#Cc1cc(C(F)(F)F)nc(Nc2ccccc2-c2nnn[nH]2)n1`, the EC50 came out at 1.4 µM.

As for `O=C(O)c1ccccc1Nc1cccc(OC(F)F)c1`, the concentration for a half-maximal effect (EC50) is 0.93 µM.

In the case of `CC#Cc1cc(Nc2ccccc2C(=O)O)cc(C(F)(F)F)c1`, the 50% effective concentration (EC50) stood at 0.38 µM.

Take `FC(F)(F)c1cc(Cl)nc(Nc2ccccc2-c2nnn[nH]2)n1`: the EC50 was 0.54 µM.

In the case of `FC(F)(F)c1nccc(Nc2ccccc2-c2nnn[nH]2)n1`, the EC50 is 1.1 µM.

As to `Cc1c(Nc2ccccc2C(=O)O)cccc1C(F)(F)F`, the half-maximal effective concentration (EC50) was 1.8 µM.

Consider `CC(C)(C)c1cc(C(F)(F)F)nc(Nc2ccccc2-c2nnn[nH]2)n1`, for which the EC50 came out at 0.64 µM.

`Cc1cc(Nc2ccccc2C(=O)O)cc(C(F)(F)F)c1`: the EC50 was 0.19 µM.

Regarding `O=C(O)c1ccccc1Nc1cc(Br)cc(C(F)(F)F)c1`, the EC50 was 0.23 µM.

With `O=C(O)c1ccccc1Nc1cccc(C(F)(F)F)c1Br`, the concentration for a half-maximal effect (EC50) is 2.1 µM.

Consider `Cc1ccc(C(F)(F)F)cc1Nc1ccccc1C(=O)O`, for which the concentration for a half-maximal effect (EC50) amounted to 0.39 µM.

Regarding `C#Cc1cc(Nc2ccccc2C(=O)O)cc(C(F)(F)F)c1`, the EC50 was 0.15 µM.

Turning to `O=C(O)c1ccccc1Nc1cccc(Cl)c1`, the EC50 was found to be 0.95 µM.

As for `O=C(O)c1ccccc1Nc1ccc(Br)c(C(F)(F)F)c1`, the half-maximal effective concentration (EC50) was found to be 0.3 µM.

As to `Cc1cc(C(F)(F)F)nc(Nc2ccccc2-c2nnn[nH]2)n1`, the concentration for a half-maximal effect (EC50) worked out at 0.072 µM.

Regarding `FC(F)(F)c1cccc(Nc2ccccc2-c2nnn[nH]2)n1`, the 50% effective concentration (EC50) is 0.098 µM.

Consider `N#Cc1cc(Nc2ccccc2C(=O)O)cc(C(F)(F)F)c1`, for which the concentration for a half-maximal effect (EC50) is 0.18 µM.

As to `N#Cc1ccc(Nc2ccccc2C(=O)O)cc1C(F)(F)F`, the concentration giving a half-maximal response (EC50) stood at 0.17 µM.

For `O=C(O)c1ccccc1Nc1nccc(C(F)(F)F)n1`, the concentration for a half-maximal effect (EC50) is 1.6 µM.

Take `FC(F)(F)c1ccnc(Nc2ccccc2-c2nnn[nH]2)c1`: the EC50 worked out at 0.36 µM.

As to `FC(F)(F)c1cc(Nc2ccccc2-c2nnn[nH]2)ccn1`, the 50% effective concentration (EC50) amounted to 3.5 µM.

As for `O=C(O)c1ccccc1Nc1cccc(C(F)(F)F)n1`, the EC50 turned out to be 0.67 µM.

For a further experiment, the target named is T2, Taste receptor type 2 member 14 (Homo sapiens) (UniProt Q9NYV8).
T2 sequence (whole entry): T1 sequence (Q9NYV8 whole entry)
Description: Agonist activity at human TAS2R14 transfected in HEK293T cells assessed as IP1 accumulation at 30 uM measured after 150 mins by IP1 accumulation assay relative to flufenamic acid. Format: cell-based.
Settings: not given
In the case of `O=C(O)c1cccc(Nc2cccc(C(F)(F)F)c2)c1`, the maximal effect (Emax) came out at 27%.

Still in this experiment, the particulars now being: filed as agonist.
For `CN(c1cccc(C(F)(F)F)c1)c1ccccc1C(=O)O`, the Emax was 59%.

`O=C(O)c1ccccc1Nc1cc(C#CC2CCCC2)cc(C(F)(F)F)c1`: the Emax was 64%.

A further experiment concerns the target T2, Taste receptor type 2 member 14 (Homo sapiens). In words: Agonist activity at human TAS2R14 transfected in HEK293T cells assessed as IP1 accumulation at 10 uM measured after 150 mins by IP1 accumulation assay relative to flufenamic acid. Format: cell-based. To be noted: filed as agonist.
Turning to `O=C(O)c1ccccc1Nc1ccnc(C(F)(F)F)c1`, the Emax worked out at 52%.

For another experiment, the target named is T3, Alpha-2B adrenergic receptor (Homo sapiens, UniProt P18089).
T3 sequence (P18089 whole entry): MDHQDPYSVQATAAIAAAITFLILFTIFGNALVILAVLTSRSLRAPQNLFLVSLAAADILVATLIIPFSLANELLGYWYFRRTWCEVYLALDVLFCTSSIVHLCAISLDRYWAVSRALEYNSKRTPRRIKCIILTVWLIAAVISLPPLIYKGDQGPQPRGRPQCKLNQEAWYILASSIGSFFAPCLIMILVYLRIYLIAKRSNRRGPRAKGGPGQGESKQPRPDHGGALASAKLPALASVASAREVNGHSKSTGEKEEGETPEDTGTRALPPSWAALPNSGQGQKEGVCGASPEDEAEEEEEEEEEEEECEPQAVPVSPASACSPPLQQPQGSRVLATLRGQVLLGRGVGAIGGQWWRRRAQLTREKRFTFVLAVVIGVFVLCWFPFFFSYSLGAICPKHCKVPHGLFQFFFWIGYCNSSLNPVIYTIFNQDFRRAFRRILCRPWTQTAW
In words: Displacement of [3H]RX821002 from human alpha2B receptor stably expressed in HEK293T cells by Cheng-Prusoff equation analysis. It counts as cell-based.
Settings: not given
A general note: In a radioligand displacement assay an active substance lowers the binding of a labelled ligand.
In turn, `C#Cc1cc(Nc2ccccc2C(=O)O)cc(C(F)(F)F)c1` had an inhibition constant Ki of 16 µM.

A further experiment deals with T4, Alpha-2C adrenergic receptor (Homo sapiens, UniProt P18825).
T4 sequence (P18825 whole entry): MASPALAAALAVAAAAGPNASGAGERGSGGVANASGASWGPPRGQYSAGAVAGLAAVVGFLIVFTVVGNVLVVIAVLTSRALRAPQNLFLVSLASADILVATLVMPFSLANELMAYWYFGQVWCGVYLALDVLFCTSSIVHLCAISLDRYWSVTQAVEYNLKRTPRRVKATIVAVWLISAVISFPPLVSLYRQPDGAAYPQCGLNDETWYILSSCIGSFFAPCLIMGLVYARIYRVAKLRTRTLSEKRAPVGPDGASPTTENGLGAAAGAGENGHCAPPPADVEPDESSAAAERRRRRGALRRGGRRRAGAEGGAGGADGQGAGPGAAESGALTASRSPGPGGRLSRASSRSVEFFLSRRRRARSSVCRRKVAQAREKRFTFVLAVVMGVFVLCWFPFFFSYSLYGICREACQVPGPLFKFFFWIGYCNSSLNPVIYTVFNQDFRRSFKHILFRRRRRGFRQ
In words: Displacement of [3H]RX821002 from human alpha2C receptor stably expressed in HEK293T cells by Cheng-Prusoff equation analysis. It counts as cell-based.
Settings: not given
Regarding `C#Cc1cc(Nc2ccccc2C(=O)O)cc(C(F)(F)F)c1`, the Ki turned out to be 17 µM.

A further experiment has as its target T5, D(2) dopamine receptor (Homo sapiens, UniProt P14416). Description: Displacement of [3H]methylspiperone from human D2S receptor stably expressed in CHO cells by Cheng-Prusoff equation analysis. It counts as cell-based.
Settings: not given
In turn, `Cc1cc(C(F)(F)F)nc(Nc2ccccc2-c2nnn[nH]2)n1` yielded a Ki of 7.3 µM.

The target in another experiment is D(3) dopamine receptor (Homo sapiens, UniProt P35462). In words: Displacement of [3H]methylspiperone from human D3 receptor stably expressed in HEK293T cells by Cheng-Prusoff equation analysis. Format: cell-based.
Chain of D(3) dopamine receptor (P35462 whole entry): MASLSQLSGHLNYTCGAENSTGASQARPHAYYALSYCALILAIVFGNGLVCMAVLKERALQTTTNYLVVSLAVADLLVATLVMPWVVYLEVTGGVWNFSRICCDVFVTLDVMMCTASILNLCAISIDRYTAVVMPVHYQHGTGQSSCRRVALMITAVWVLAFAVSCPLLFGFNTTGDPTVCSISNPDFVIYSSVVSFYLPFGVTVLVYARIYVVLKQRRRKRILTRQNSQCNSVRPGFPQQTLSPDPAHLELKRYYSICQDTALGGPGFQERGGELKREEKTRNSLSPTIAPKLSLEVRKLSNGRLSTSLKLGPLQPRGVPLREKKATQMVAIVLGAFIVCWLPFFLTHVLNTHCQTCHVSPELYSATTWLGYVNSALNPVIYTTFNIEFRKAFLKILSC
Settings: not given
`Cc1cc(C(F)(F)F)nc(Nc2ccccc2-c2nnn[nH]2)n1` had a Ki of 1.1 µM.

A further experiment deals with T5, D(2) dopamine receptor. In words: Displacement of [3H]methylspiperone from human D2L receptor stably expressed in CHO cells by Cheng-Prusoff equation analysis. Format: cell-based.
Settings: not given
As to `Cc1cc(C(F)(F)F)nc(Nc2ccccc2-c2nnn[nH]2)n1`, the Ki is 16 µM.

In another experiment the target is T6, Muscarinic acetylcholine receptor M2 (Homo sapiens, UniProt P08172).
T6 sequence (P08172 whole entry): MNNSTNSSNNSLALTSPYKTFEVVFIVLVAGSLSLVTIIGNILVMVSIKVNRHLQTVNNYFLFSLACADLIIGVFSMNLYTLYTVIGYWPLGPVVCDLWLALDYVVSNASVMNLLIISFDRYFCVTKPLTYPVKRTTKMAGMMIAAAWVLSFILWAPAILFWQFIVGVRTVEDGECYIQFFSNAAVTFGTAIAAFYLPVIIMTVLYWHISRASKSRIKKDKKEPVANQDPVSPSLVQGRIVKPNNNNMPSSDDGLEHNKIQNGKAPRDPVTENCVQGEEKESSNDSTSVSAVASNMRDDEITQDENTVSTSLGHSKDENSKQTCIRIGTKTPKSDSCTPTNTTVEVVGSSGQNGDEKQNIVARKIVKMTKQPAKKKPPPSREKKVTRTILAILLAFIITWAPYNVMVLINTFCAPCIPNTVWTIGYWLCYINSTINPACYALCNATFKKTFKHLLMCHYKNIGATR
In words: Displacement of [3H]NMS from human M2 receptor stably expressed in HEK293T cells by Cheng-Prusoff equation analysis. It counts as cell-based.
Settings: not given
Consider `Cc1cc(C(F)(F)F)nc(Nc2ccccc2-c2nnn[nH]2)n1`, for which the inhibitory constant (Ki) amounted to 2.3 µM.

A further experiment has as its target T1, Taste receptor type 2 member 14. Description: Partial agonist activity at human TAS2R14 transfected in HEK293T cells assessed as IP1 accumulation measured after 150 mins by IP1 accumulation assay. Format: cell-based.
Settings: not given
On to `FC(F)(F)c1cc(Nc2ccccc2-c2nnn[nH]2)cc(C(F)(F)F)c1`, for which the EC50 turned out to be 0.1 µM.

The target of the next experiment is T2, Taste receptor type 2 member 14 (Homo sapiens). Description: Partial agonist activity at human TAS2R14 transfected in HEK293T cells assessed as IP1 accumulation measured after 150 mins by IP1 accumulation assay relative to control. Format: cell-based. To be noted: filed as partial agonist.
In the case of `FC(F)(F)c1cc(Nc2ccccc2-c2nnn[nH]2)cc(C(F)(F)F)c1`, the Emax is 80%.

What is called EC50 is the concentration that produces a half-maximal response. For orientation: Emax means the maximal effect, on the per cent scale that the assay sets. One may read the Ki as a dissociation constant, usually derived from enzyme kinetics or from competition with a known ligand. Read a high Ki as weaker binding.
